Results on two compounds are retold here after patent publication US20230284616A1, “FUNGICIDAL COMPOSITIONS” (SYNGENTA CROP PROTECTION AG, priority 2020, published 2023).

Broadly, the inhibition is the change of the read-out against control, counted positive when it falls.

Read-outs that look alike come from different tables or passages of the source. Numbered stars: 1 amine (or outer) side, 2 acyl side, 3 side chain; on linkers, the order of the positions; unused ones are H or OH. Square brackets hold non-standard residues; d marks the D form. Peptide text beside a SMILES is read from it. ξ: configuration not given here. ξNMeVal(3-OH) = CNC(C(=O)O)C(C)(C)O; NMeF = CN[CH](Cc1ccccc1)C(=O)O; X1 = CCC(C)C(O[*:1])C(=O)[*:2]; NMeV = CN[CH](C(=O)O)C(C)C

One experiment deals with Alternaria solani. The experiment in a line: Liquid culture test in well plates, Alternaria solani (early blight of tomato/potato), Example 1-2. The experiment is classed as cell-based. The procedure:
(§1) Mycelia fragments or conidia suspensions of a fungus, prepared either freshly from liquid cultures of the fungus or from cryogenic storage, are directly mixed into nutrient broth. DMSO solutions of the test compound (max. 10 mg/mL) is diluted with 0.025% Tween20 by factor 50 and 10 µL of this solution is pipetted into a microtiter plate (96-well format). […] The test plates are incubated in the dark at 24° C. and 96% relative humidity (rh). The inhibition of fungal growth is determined photometrically and visually after 3 - 7 days, depending on the pathosystem, and percent antifungal activity relative to the untreated check is calculated.
Conidia of the fungus from cryogenic storage were directly mixed into nutrient broth (PDB potato dextrose broth). After placing a DMSO solution of the test compositions into a microtiter plate (96-well format) the nutrient broth containing the fungal spores was added.

The subject of another experiment is Botrytis cinerea. Description: Liquid culture test in well plates, Botrytis cinerea (gray mould), Example 1-1. The experiment is classed as cell-based. The note with it: Cyprodinil 0.005 ppm alone, growth inhibition, photometric, 72 hours, read-out: (B) inhibition (%). How it is done: as §1
Conidia of the fungus from cryogenic storage were directly mixed into nutrient broth (PDB potato dextrose broth). After placing a DMSO solution of the test compositions into a microtiter plate (96-well format), the nutrient broth containing the fungal spores was added.

Setting [1] is: 48 h, read-out: (A) inhibition (%).

For `CCC(C)C1NC(=O)C2CCCN2C(=O)C(Cc2ccccc2)N(C)C(=O)C(Cc2ccccc2)NC(=O)C(C(C)C)N(C)C(=O)C(C(C)CC)OC(=O)C(C(C)(C)O)N(C)C(=O)C(CC(C)C)NC(=O)C(C(C)C)N(C)C1=O` (centres unmarked) [Aureobasidin A] (cyclo([ξNMeVal(3-OH)][X1][NMeV]F[NMeF]PI[NMeV]L); configuration not given here), in the experiment on Alternaria solani (setting [1]), the inhibition at 0.01 ppm was 24%, the inhibition at 0.02 ppm came out at 31% and the inhibition at 0.04 ppm amounted to 43%.

In the case of `Cc1cc(C2CC2)nc(Nc2ccccc2)n1` [Cyprodinil, cyprodinil, reference compound], the inhibition at 0.04 ppm with Alternaria solani (Cyprodinil 0.04 ppm alone, 48 hours, read-out: (B) inhibition (%)) is 35%. Besides, the inhibition at 0.005 ppm in the experiment with Botrytis cinerea turned out to be 34%.
